Values of other authors as cited in article PMC10104807, “Modulation of tau tubulin kinases (TTBK1 and TTBK2) impacts ciliogenesis” (Scientific Reports, 2023).

Key:
[1] = tested on: 403 wild-type (WT) human kinases; design: method as in PMID 33944571; conditions: 1 μM; cited from earlier work
[2] = tested on: tau phosphorylation; conditions: cited from earlier work
[3] = design: method as in PMID 34978799; conditions: cited from earlier work

SMILES: CC[C@](C)(O)C#Cc1cc2c(cn1)cnn2-c1ccnc(N)n1 [BGN18]
- number of kinases bound with PoC < 10 in DiscoverX scanMAX panel [1]: sixteen

SMILES: CC[C@](C)(O)C#Cc1cc2c(ccn2-c2cc(OC)nc(N)n2)cn1 [BGN31]
- tau phosphorylation at multiple disease-relevant sites in vivo [2]: significantly lowered
- number of kinases bound with PoC < 10 in DiscoverX scanMAX panel [1]: eight

SMILES: Clc1ccc(-c2ccc(Nc3ncnc4[nH]ccc34)cc2)cc1 [compound 29]
- brain penetration [3]: good brain penetration
